These results are taken from ChEMBL document CHEMBL4420081, “Novel benzylamino substituted quinazolines and derivatives as sos1 inhibitors” (2018).

Holding throughout (assay type): functional
The test system of test [1] is NCI-H358. As to the kind of experiment: Growth inhibition of human NCI-H358 cells grown under 3D anchorage-independent soft-agar conditions at 333 nM incubated for 14 days by alamar blue dye based assay relative to control. The settings on record: NCI-H358, 336 h, read-out: GI. (In general: Resazurin is reduced to fluorescent resorufin, in cell work by metabolically active cells.)

Test [2] concerns NCI-H1792. In words: Growth inhibition of human NCI-H1792 cells grown under 3D anchorage-independent soft-agar conditions at 333 nM incubated for 14 days by alamar blue dye based assay relative to control. Particulars: NCI-H1792, 336 h, read-out: GI.
The test system of test [3] is NCI-H358. As to the kind of experiment: Growth inhibition of human NCI-H358 cells grown under 3D anchorage-independent soft-agar conditions at 111 nM incubated for 14 days by alamar blue dye based assay relative to control. Particulars: NCI-H358, 336 h, read-out: GI.
For test [4], the system named is NCI-H1792. In words: Growth inhibition of human NCI-H1792 cells grown under 3D anchorage-independent soft-agar conditions at 1000 nM incubated for 14 days by alamar blue dye based assay relative to control. The settings on record: NCI-H1792, 336 h, read-out: GI.
The subject of test [5] is NCI-H1792. In words: Growth inhibition of human NCI-H1792 cells grown under 3D anchorage-independent soft-agar conditions at 12.3 nM incubated for 14 days by alamar blue dye based assay relative to control. The settings on record: NCI-H1792, 336 h, read-out: GI.
The test system of test [6] is NCI-H1792. As to the kind of experiment: Growth inhibition of human NCI-H1792 cells grown under 3D anchorage-independent soft-agar conditions at 37 nM incubated for 14 days by alamar blue dye based assay relative to control. The settings on record: NCI-H1792, 336 h, read-out: GI.
In test [7] the test system is NCI-H358. In words: Growth inhibition of human NCI-H358 cells grown under 3D anchorage-independent soft-agar conditions at 12.3 nM incubated for 14 days by alamar blue dye based assay relative to control. The settings on record: NCI-H358, 336 h, read-out: GI.
Test [8] has as its system NCI-H1792. In words: Growth inhibition of human NCI-H1792 cells grown under 3D anchorage-independent soft-agar conditions at 111 nM incubated for 14 days by alamar blue dye based assay relative to control. The settings on record: NCI-H1792, 336 h, read-out: GI.
Test [9] deals with NCI-H358. In words: Growth inhibition of human NCI-H358 cells grown under 3D anchorage-independent soft-agar conditions at 1000 nM incubated for 14 days by alamar blue dye based assay relative to control. Particulars: NCI-H358, 336 h, read-out: GI.
For test [10], the system named is NCI-H358. As to the kind of experiment: Growth inhibition of human NCI-H358 cells grown under 3D anchorage-independent soft-agar conditions at 37 nM incubated for 14 days by alamar blue dye based assay relative to control. Particulars: NCI-H358, 336 h, read-out: GI.
Test [11] relates to PC-9. In words: Growth inhibition of human PC9 cells grown under 3D anchorage-independent soft-agar conditions at 1.11 nM incubated for 14 days by alamar blue dye based assay relative to control. The settings on record: PC-9, 336 h, read-out: GI.
Test [12] deals with PC-9. In words: Growth inhibition of human PC9 cells grown under 3D anchorage-independent soft-agar conditions at 3.33 nM incubated for 14 days by alamar blue dye based assay relative to control. The settings on record: PC-9, 336 h, read-out: GI.
Test [13] relates to PC-9. In words: Growth inhibition of human PC9 cells grown under 3D anchorage-independent soft-agar conditions at 0.123 nM incubated for 14 days by alamar blue dye based assay relative to control. Particulars: PC-9, 336 h, read-out: GI.
Test [14] concerns PC-9. In words: Growth inhibition of human PC9 cells grown under 3D anchorage-independent soft-agar conditions at 0.37 nM incubated for 14 days by alamar blue dye based assay relative to control. Particulars: PC-9, 336 h, read-out: GI.
Test [15] deals with PC-9. As to the kind of experiment: Growth inhibition of human PC9 cells grown under 3D anchorage-independent soft-agar conditions at 10 nM incubated for 14 days by alamar blue dye based assay relative to control. Particulars: PC-9, 336 h, read-out: GI.

Turning to `C=CC(=O)N1CCN(c2ncnc3c(F)c(-c4cc(O)cc5ccccc45)c(Cl)cc23)CC1`, the inhibition of growth at 0.333 µM in the test on NCI-H358 [1] is 139%; in the test on NCI-H1792 [2] it was 46%. For the same compound, the inhibition of growth at 0.111 µM with NCI-H358 [3] came out at 87%; with NCI-H1792 [8] it was 42%. Also, the inhibition of growth at 1 µM turned out to be 81% with NCI-H1792 [4] and 180% in the test on NCI-H358 [9]. Also, the results for the inhibition of growth at 0.0123 µM in the test with NCI-H1792 [5] and in the test on NCI-H358 [7] were 5% and 17%, respectively. Besides, the inhibition of growth at 0.037 µM in the test with NCI-H1792 [6] was determined as 29%; with NCI-H358 [10] it was 47%.
On to `C=CC(=O)Nc1cccc(Oc2nc(Nc3ccc(N4CCN(C)CC4)cc3)nc3ccsc23)c1` [OLMUTINIB], for which the inhibition of growth at 0.00111 µM in the test on PC-9 [11] amounted to 1%. Further, in the test with PC-9 [12], the inhibition of growth at 0.00333 µM was found to be 35%. Further, the inhibition of growth at 0.000123 µM with PC-9 [13] was -3%. In the test with PC-9 [14], the inhibition of growth at 0.00037 µM is -3%. Further, the inhibition of growth at 0.01 µM in the test on PC-9 [15] came to 69%.
